Data on 19 compounds can be found in patent US20190127354A1, “2,4,6,7-TETRASUBSTITUTED QUINOLINE COMPOUNDS AS INHIBITORS OF DNA […]” (FUNDACIÓN PARA LA INVESTIGACIÓN MÉDICA APLICADA, priority 2015, published 2019).

For one test, the system named is PLC/PRF/5. The test is described as follows: Cell proliferation assay (CellTiter 96 Aqueous One Solution). It is filed as cell-based. The settings on record: Homo sapiens, hepatocellular carcinoma cells, 48 hours of treatment. As for the experimental part:
(§1) Cell proliferation was analyzed after 48 hours of in vitro treatment using the CellTiter 96 Aqueous One Solution Cell Proliferation Assay (Promega, Madison, W). This is a colorimetric method for determining the number of viable cells in proliferation.
(§2) For the assay, suspension cells were cultured by triplicate at a density of 1×10^6 cells/ml in 96-well plates (100.000 cells/well, 100 μl/well), except for HepG2, Hep3B and PLC/PRF/5 cell lines which were cultured at a density of 3000 cells/well, 100 μl/well).
(§3) Adherent cells were obtained from 80-90% confluent flasks and 100 μl of cells were seeded at a density of 5000 cells/well in 96-well plates by triplicate. Before addition of the compounds, adherent cells were allowed to attach to the bottom of the wells for 12 hours. In all cases, only the 60 inner wells were used to avoid any border effects.
(§4) After 48 hours of treatment, plates with suspension cells were centrifuged at 800g for 10 minutes and medium was removed. The plates with adherent cells were flicked to remove medium. Then, cells were incubated with 100 μl/well of medium and 20 μl/well of CellTiter 96 Aqueous One Solution reagent. After 1-3 hours of incubation at 37° C., absorbance was measured at 490 nm in a 96-well plate reader. The background absorbance was measured in wells with only cell line medium and solution reagent. Data was calculated as a percentage of total absorbance of treated cell/absorbance of non treated cells.

For the next test, the system named is HepG2. The test is described as above. It is filed as cell-based. The settings on record: Homo sapiens, hepatocellular carcinoma cells, 48 hours of treatment. As for the experimental part:
as §1, §2, §3, §4

Another test has as its system Hep3B. The test is described as above. The test is classed as cell-based. The following applies: Homo sapiens, hepatocellular carcinoma cells, 48 hours of treatment. As for the experimental part: as §1, §2, §3, §4
For a further test, the system named is CEMO-1. The test is described as above. The test is classed as cell-based. The settings on record: acute lymphocytic leukemia (ALL) cells, 48 hours of treatment. As for the experimental part:
as §1, §2, §3, §4

For test [1], the system named is DNA methyltransferase (DNMT). The settings on record: selectivity in a methyltransferase enzyme panel including one DNMT, according to the authors; cited from earlier work.
The next test has as its target T1, human DNMT1 (Homo sapiens, UniProt P26358).
T1 construct: purchased Reaction Biology Corp. DMT-21-124
Kind of test: DNMT1 enzyme activity assay (TR-FRET, EPIgeneous methyltransferase assay). It is filed as biochemical. The following applies: human DNMT1, 15 minutes at 37° C. As for the experimental part:
DNMT1 Enzyme Activity Assay
The biochemical assay to measure DNMT1 enzyme activity relies on time-resolved fluorescence energy transfer (TR-FRET) between lumi4-Tb (donor) and d2 (acceptor) using the EPIgeneous methyltransferase assay (CisBio Cat#62SAHPEB). […] TR-FRET signal is inversely proportional to the concentration of SAH, product of DNMT1 enzyme activity, in the sample. The human DNMT1 was obtained from Reaction Biology Corp. (Cat# DMT-21-124).
Enzyme activity assay was carried out in a white 384-well plate in a final volume of 20 μl, as follow: • 4 μl of vehicle or studied compound 2.5× concentrated prepared in assay buffer (50 mM Tris-HCl, 1 mM EDTA, 1 mM DTT, 0.1% Triton X-100, 5% glycerol pH 7.5). Final percentage of DMSO was 0.5%. • 2 μl of 1 nM DNMT1 enzyme diluted in assay buffer.
For each well, fluorescence was measured at 620 nm and 665 nm. A ratio (665 nm/620 nm) was then calculated in order to minimize medium interferences. Positive control was obtained in the presence of the vehicle of the compounds. Calculated IC50 values were determined using GraphPrism using 4-parameters inhibition curve.
For orientation: In TR-FRET formats the signal depends on donor and acceptor labels being close together.

The target in a further test is T2, human G9a enzyme (Homo sapiens, UniProt Q96KQ7).
T2 construct: purchased BPS Biosciences 51001; host or cells: baculovirus infected Sf9 cells
T2 sequence (Q96KQ7 1-1210): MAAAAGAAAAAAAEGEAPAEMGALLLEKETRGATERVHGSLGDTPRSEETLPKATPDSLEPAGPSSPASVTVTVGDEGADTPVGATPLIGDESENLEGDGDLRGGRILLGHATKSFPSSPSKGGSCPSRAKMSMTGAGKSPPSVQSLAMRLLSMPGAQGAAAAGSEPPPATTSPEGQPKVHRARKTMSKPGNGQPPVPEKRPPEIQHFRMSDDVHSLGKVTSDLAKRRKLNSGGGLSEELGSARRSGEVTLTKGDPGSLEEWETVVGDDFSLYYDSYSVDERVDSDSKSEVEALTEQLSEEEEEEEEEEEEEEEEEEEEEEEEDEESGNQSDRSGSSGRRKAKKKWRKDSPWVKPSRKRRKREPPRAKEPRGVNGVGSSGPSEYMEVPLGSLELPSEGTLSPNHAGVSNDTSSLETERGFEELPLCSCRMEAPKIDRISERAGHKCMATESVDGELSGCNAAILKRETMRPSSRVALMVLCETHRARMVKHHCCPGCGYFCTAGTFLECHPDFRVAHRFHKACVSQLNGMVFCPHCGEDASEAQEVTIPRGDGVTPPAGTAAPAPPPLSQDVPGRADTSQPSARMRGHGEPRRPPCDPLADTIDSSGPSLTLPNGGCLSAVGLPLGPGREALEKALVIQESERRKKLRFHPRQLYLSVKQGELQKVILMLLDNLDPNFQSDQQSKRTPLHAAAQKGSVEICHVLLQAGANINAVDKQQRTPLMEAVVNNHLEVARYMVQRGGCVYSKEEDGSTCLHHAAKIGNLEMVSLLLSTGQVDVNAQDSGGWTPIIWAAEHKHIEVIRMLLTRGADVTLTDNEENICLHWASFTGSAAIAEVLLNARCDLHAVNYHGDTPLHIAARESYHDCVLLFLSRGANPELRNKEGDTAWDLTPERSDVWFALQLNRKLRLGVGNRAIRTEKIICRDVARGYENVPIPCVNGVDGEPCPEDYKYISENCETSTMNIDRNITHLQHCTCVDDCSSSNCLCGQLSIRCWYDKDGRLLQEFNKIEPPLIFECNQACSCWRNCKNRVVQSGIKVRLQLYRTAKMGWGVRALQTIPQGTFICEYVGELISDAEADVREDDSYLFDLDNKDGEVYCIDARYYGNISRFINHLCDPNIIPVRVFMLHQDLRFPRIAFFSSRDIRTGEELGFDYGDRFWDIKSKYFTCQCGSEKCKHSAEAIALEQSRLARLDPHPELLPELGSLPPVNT
Kind of test: G9a enzyme activity assay (TR-FRET). The test is classed as biochemical. The following applies: 1 hour at room temperature. As for the experimental part: G9a Enzyme Activity Assay
The biochemical assay to measure G9a enzyme activity relies on time-resolved fluorescence energy transfer (TR-FRET) between europium cryptate (donor) and XL665 (acceptor). […] The human G9a enzyme expressed in a baculovirus infected Sf9 cell expression system was obtained from BPS Biosciences (Cat. #51001). Enzyme activity assay was carried out in a white 384-well plate in a final volume of 20 μl, as follow: • 4 μl of vehicle or studied compound 2.5× concentrated prepared in assay buffer (50 mM Tris-HCl, 10 mM NaCl, 4 mM DTT, 0.01% Tween-20 pH9). Final percentage of DMSO was 0.5%. • 2 μl of 1 nM G9a enzyme diluted in assay buffer. […] Final concentration 150 nM. • Then, add 5 μl of streptavidin XL665 beads. Final concentration of 16 μM. • Read the plate after 1 hour of incubation at room temperature.
For each well, fluorescence was measured at 620 nm and 665 nm. A ratio (665 nm/620 nm) was then calculated in order to minimize medium interferences. Positive control was obtained in the presence of the vehicle of the compounds. Negative control was obtained in the absence of G9a enzyme activity. Calculated IC50 values were determined using GraphPrism using 4-parameters inhibition curve.

T1 sequence (P26358 whole entry): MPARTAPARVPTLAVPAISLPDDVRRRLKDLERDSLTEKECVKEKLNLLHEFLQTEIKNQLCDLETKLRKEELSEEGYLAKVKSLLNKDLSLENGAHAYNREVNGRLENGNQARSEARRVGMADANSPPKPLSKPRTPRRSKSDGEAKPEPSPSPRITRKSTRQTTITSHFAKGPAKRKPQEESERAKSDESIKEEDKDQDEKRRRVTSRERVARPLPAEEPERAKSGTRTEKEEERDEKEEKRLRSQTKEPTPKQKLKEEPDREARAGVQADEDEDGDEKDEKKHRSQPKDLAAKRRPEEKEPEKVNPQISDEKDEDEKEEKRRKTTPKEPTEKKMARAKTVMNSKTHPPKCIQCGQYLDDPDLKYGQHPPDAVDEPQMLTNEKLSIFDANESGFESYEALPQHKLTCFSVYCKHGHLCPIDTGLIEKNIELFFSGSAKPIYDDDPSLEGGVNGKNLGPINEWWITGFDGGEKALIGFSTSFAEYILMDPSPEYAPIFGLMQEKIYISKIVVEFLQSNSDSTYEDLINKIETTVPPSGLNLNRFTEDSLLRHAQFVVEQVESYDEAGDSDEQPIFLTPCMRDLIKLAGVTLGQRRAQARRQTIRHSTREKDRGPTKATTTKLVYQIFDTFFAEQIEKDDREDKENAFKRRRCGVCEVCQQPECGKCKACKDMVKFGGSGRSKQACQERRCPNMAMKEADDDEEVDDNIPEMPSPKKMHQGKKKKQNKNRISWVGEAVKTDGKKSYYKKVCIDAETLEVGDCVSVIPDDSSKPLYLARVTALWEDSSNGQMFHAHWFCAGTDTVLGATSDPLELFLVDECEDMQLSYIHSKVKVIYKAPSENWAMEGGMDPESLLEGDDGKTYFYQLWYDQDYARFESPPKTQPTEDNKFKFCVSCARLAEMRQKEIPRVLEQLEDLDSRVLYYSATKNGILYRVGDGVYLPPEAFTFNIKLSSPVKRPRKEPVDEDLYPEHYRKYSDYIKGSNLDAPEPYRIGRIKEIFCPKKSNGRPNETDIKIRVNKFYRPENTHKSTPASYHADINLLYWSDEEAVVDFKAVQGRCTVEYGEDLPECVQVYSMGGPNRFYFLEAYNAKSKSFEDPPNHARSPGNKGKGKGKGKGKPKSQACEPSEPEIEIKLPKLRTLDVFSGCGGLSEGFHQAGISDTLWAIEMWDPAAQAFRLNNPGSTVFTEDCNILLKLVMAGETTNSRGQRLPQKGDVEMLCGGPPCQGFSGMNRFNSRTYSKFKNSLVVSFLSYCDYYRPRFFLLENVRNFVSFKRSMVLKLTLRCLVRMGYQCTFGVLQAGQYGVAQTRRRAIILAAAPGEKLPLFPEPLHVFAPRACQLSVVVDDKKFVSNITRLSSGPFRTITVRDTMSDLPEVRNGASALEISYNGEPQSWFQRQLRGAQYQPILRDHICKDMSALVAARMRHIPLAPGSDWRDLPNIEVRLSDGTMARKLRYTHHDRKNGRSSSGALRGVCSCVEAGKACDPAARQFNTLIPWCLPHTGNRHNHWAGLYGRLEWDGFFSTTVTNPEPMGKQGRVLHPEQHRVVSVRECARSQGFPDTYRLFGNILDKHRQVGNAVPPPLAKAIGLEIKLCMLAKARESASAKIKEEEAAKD

Consider `COc1cc2c(OC3CCN(C)CC3)cc(-c3ccc(C)o3)nc2cc1OCCCN1CCCC1` [Compound 3-01, 6-methoxy-2-(5-methyl-2-furyl)-4-[(1-methyl-4-piperidyl)oxy]-7-(3-pyrrolidin-1-ylpropoxy)quinoline], for which the GI50 in the test with PLC/PRF/5, in the test with HepG2, in the test with Hep3B and with CEMO-1 was 1000 to 10000 nM in each case.
`COc1cc2nc(N3CCCN(C)CC3)cc(NC3CCN(Cc4ccccc4)CC3)c2cc1OC` [Compound 41]: in test [1], the “activity against the DNA methyltransferase” value is “inactive”.
As to `COc1cc2c(N(C)C3CCN(C)CC3)cc(-c3ccc(C)o3)nc2cc1OCCCN1CCCC1` [Compound 1-02], the GI50 – broadly, the concentration at which growth is held to half of that of the control – with HepG2 was 1000 to 10000 nM; in the test on Hep3B, 1000 to 10000 nM; with CEMO-1, at least 10000 nM.
For `COc1cc2c(N(C)CC3CCN(C)CC3)cc(-c3ccc(C)o3)nc2cc1OCCCN1CCC(F)C1` (stereo not drawn) [Compound 1-20], the values for the IC50 against human DNMT1 and against human G9a enzyme were 1000 to 10000 nM and above 10000 nM, respectively.
As for `COc1cc2c(N(C)CC3CCN(C)CC3)cc(C3CCCCC3)nc2cc1OCCCN1CCCC1` [Compound 1-21, 2-cyclohexyl-6-methoxy-N-methyl-N-[(1-methyl-4-piperidyl)methyl]-7-(3-pyrrolidin-1-ylpropoxy)quinolin-4-amine], the IC50 (usually the concentration needed to halve the response being measured) on human DNMT1 lay in the range of 1000 to 10000 nM; at human G9a enzyme, 100 to 500 nM.
Consider `COc1cc2nc(N3CCN(C)CC3)cc(NC3CCN(Cc4ccccc4)CC3)c2cc1OC` [Compound 42], for which the “activity against the DNA methyltransferase” value in test [1] is “inactive”.
For the compound `COc1cc2c(N(C)C)cc(-c3ccc(C)[nH]3)nc2cc1OCCCN1CCCC1` [Compound 1-11], the values for the IC50 at human DNMT1 and against human G9a enzyme were 1000 to 10000 nM and 100 to 500 nM, respectively.
As to `COc1cc2c(N(C)CC3CCN(C)CC3)cc(-c3cc(C)oc3C)nc2cc1OCCCN1CCCC1` [Compound 1-19], the IC50 against human DNMT1 and against human G9a enzyme was 500 to 1000 nM in each case.
For `COc1cc2c(OC3CCN(C)CC3)cc(-c3ccc(C)o3)nc2cc1OC1CC2(C1)CN(C)C2` [Compound 3-06, 6-methoxy-7-[(2-methyl-2-azaspiro[3.3]heptan-6-yl)oxy]-2-(5-methyl-2-furyl)-4-[(1-methyl-4-piperidyl)oxy]quinoline], the IC50 against human DNMT1 is 1000 to 10000 nM; at human G9a enzyme, above 10000 nM.
For the compound `COc1cc2c(N(C)CC3CCN(C)CC3)cc(-c3ccc(C)o3)nc2cc1OCCCN1CCCC1` [Compound 1-03], the IC50 against human DNMT1 lay within 100 to 500 nM; against human G9a enzyme, 1000 to 10000 nM. Also, the GI50 in the test with HepG2 fell in the range of 100 to 1000 nM; in the test with Hep3B it was 100 to 1000 nM; in the test with CEMO-1, 1000 to 10000 nM.
Consider `COc1cc2c(N3CCC(N(C)C)CC3)cc(-c3ccc(C)[nH]3)nc2cc1OCCCN1CCCC1` [Compound 2-05, 1-[6-methoxy-2-(5-methyl-1H-pyrrol-2-yl)-7-(3-pyrrolidin-1-ylpropoxy)-4-quinolyl]-N,N-dimethyl-piperidin-4-amine], for which the concentration for half-maximal inhibition (IC50) against human DNMT1 and at human G9a enzyme was 100 to 500 nM in each case.
Take `CNC1CCN(c2cc(-c3ccc(C)[nH]3)nc3cc(OCCCN4CCCC4)c(OC)cc23)CC1` [Compound 2-03]: the results for the IC50 on human DNMT1 and at human G9a enzyme were 500 to 1000 nM and 100 to 500 nM, respectively.
Regarding `CCc1ccc(-c2cc(N(C)CC3CCN(C)CC3)c3cc(OC)c(OCCCN4CCCC4)cc3n2)o1` [Compound 1-04], the IC50 against human DNMT1 was 100 to 500 nM; on human G9a enzyme it was 500 to 1000 nM. Besides, the GI50 in the test on HepG2, in the test with Hep3B and in the test with CEMO-1 was 100 to 1000 nM throughout.
Take `COc1cc2c(N(C)C)cc(-c3ccc(C)o3)nc2cc1OCCCN1CCCC1` [Compound 1-12]: the concentration for half-maximal inhibition (IC50) against human DNMT1 and on human G9a enzyme was 1000 to 10000 nM throughout.
Regarding `CCc1ccc(-c2cc(N(C)CC3CCN(C)CC3)c3cc(OC)c(OC4CC5(C4)CN(C)C5)cc3n2)o1` [Compound 1-10], the IC50 on human DNMT1 is 1000 to 10000 nM; at human G9a enzyme, above 10000 nM.
For `COc1cc2c(C=C3CCN(C)CC3)cc(-c3ccc(C)o3)nc2cc1OCCCN1CCCC1` [Compound 5-01, 6-methoxy-2-(5-methyl-2-furyl)-4-[(1-methyl-4-piperidylidene)methyl]-7-(3-pyrrolidin-1-ylpropoxy)quinoline], in that order: 1000 to 10000 nM and above 10000 nM.
As to `COc1cc2c(N3CCC(CO)CC3)cc(-c3ccc(C)o3)nc2cc1OCCCN1CCCC1` [Compound 2-02], the IC50 against human DNMT1 and at human G9a enzyme was 1000 to 10000 nM each time.
With `COc1cc2c(N(C)CC3CCN(C)CC3)cc(-c3ccc(C)[nH]3)nc2cc1OCCCN1CCCC1` [Compound 1-06], the IC50 on human DNMT1 and against human G9a enzyme was 100 to 500 nM each time.
In the case of `COc1cc2c(N(C)CC3CCN(C)CC3)cc(-c3ccccc3)nc2cc1OCCCN1CCCC1` [Compound 1-22], the values for the half-maximal inhibitory concentration (IC50) on human DNMT1 and against human G9a enzyme were 500 to 1000 nM and 1000 to 10000 nM, respectively.
